Test results from ChEMBL document CHEMBL1152811, “Docking model of drug binding to the human ether-à-go-go potassium channel guided by tandem dimer mutant patch-clamp data: a synergic approach” (J Med Chem, 2009).
Active and inactive are the calls of the source. No cut-off for these calls is given here.

Tests used:
Format in all cases: cell-based
[1] = Inhibition of human ERG td[wt:Y652A] mutant expressed in HEK293 cells by whole cell patch clamp method
[2] = Inhibition of human ERG td[wt:F656A] mutant expressed in HEK293 cells by whole cell patch clamp method
[3] = system: HEK293; assay: Binding affinity to human ERG td[wt:F656A] mutant expressed in HEK293 cells assessed as blockade of membrane current at 0.05 uM by whole cell patch clamp method
[4] = system: HEK293; assay: Binding affinity to human ERG td[wt:Y652A] mutant expressed in HEK293 cells assessed as blockade of membrane current at 0.2 uM by whole cell patch clamp method
[5] = target: Voltage-gated inwardly rectifying potassium channel KCNH2 (Homo sapiens, UniProt Q12809); assay: Inhibition of human ERG expressed in HEK293 cells by whole cell patch clamp method
Chain of Voltage-gated inwardly rectifying potassium channel KCNH2 (Q12809 whole entry): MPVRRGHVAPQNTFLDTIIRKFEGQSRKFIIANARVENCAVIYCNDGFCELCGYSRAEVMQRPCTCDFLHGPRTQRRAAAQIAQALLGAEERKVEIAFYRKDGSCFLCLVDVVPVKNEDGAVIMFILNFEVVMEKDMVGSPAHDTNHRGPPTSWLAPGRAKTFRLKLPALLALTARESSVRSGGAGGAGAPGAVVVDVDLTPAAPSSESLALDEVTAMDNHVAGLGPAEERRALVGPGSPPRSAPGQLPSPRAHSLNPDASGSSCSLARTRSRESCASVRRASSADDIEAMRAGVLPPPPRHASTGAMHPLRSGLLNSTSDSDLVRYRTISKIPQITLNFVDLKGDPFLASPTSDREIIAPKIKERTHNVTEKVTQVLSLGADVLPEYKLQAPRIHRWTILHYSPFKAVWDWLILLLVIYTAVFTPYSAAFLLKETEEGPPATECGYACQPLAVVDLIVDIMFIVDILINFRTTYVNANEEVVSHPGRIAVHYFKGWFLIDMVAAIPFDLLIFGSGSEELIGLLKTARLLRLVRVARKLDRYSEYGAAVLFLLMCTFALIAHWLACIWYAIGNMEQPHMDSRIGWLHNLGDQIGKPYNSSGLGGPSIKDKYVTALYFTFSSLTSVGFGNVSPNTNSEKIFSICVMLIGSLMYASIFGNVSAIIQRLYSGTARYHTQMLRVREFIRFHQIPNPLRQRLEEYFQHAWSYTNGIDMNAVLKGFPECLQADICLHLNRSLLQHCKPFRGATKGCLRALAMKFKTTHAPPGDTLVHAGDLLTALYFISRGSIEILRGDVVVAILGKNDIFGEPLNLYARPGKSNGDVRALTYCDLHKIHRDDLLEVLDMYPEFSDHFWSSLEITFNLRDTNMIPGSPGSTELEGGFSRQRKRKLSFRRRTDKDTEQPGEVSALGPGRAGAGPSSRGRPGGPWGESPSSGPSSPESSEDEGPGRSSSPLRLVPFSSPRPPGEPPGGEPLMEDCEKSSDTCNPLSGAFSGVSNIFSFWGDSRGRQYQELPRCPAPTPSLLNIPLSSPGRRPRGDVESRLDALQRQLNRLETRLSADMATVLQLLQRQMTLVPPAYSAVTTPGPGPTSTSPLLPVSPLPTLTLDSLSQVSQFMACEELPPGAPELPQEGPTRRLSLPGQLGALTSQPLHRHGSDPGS

IC50 [1] [nM] | IC50 [2] [nM] | Structure (SMILES) | Activity [3] | Activity [4] | IC50 [5] [µM]
250 | 20 | Cc1cccc(CCN2CCC(C(=O)c3ccc(NS(C)(=O)=O)cc3)CC2)n1 | – | – | –
180 | 10 | COc1cc(N)c(Cl)cc1C(=O)NC1CCN(CCCOc2ccc(F)cc2)CC1OC (centres undefined) [CISAPRIDE] | Active | Active | –
– | – | CCOc1cc(N)c(Cl)cc1C(=O)NCC1CN(Cc2ccc(F)cc2)CCO1 (centres undefined) [MOSAPRIDE] | – | – | 4.8
30 | 30 | CC(C)(C)c1ccc(C(O)CCCN2CCC(C(O)(c3ccccc3)c3ccccc3)CC2)cc1 (centres undefined) [TERFENADINE] | – | – | –
